Data taken from ChEMBL document CHEMBL4665629, “An optimised series of substituted N-phenylpyrrolamides as DNA gyrase B inhibitors” (Eur J Med Chem, 2019).
Converted amounts (≈) assume the structure as drawn.

What was measured:
Escherichia coli [1] = assay: Antibacterial activity against Escherichia coli ATCC 25922 assessed as bacterial growth inhibition at 50 uM incubated for 24 hrs by CLSI protocol based broth microdilution assay relative to control; format: functional
[2] = target: Topoisomerase IV (Staphylococcus aureus) (UniProt P0C1U9+P0C1S7); assay: Inhibition of Staphylococcus aureus DNA topoisomerase 4 assessed as residual activity at 1 uM using biotinylated oligonucleotide as substrate incubated for 30 mins in presence of ATP by fluorescence-based microplate reader assay relative to control; format: protein-complex assay
Staphylococcus aureus = assay: Antibacterial activity against Staphylococcus aureus ATCC 29213 assessed as bacterial growth inhibition at 50 uM incubated for 24 hrs by CLSI protocol based broth microdilution assay relative to control; format: functional
[3] = Inhibition of Escherichia coli DNA topoisomerase 4 assessed as residual activity at 1 uM using biotinylated oligonucleotide as substrate incubated for 30 mins in presence of ATP by fluorescence-based microplate reader assay relative to control
Enterococcus faecium = assay: Antibacterial activity against Enterococcus faecium ATCC 35667 assessed as bacterial growth inhibition at 50 uM incubated for 24 hrs by CLSI protocol based broth microdilution assay relative to control; format: functional
Klebsiella pneumoniae = assay: Antibacterial activity against Klebsiella pneumoniae ATCC 700603 assessed as bacterial growth inhibition at 50 uM incubated for 24 hrs by CLSI protocol based broth microdilution assay relative to control; format: functional
Escherichia coli [4] = assay: Antibacterial activity against outer membrane impaired Escherichia coli JD17464 harboring lpxC mutant assessed as bacterial growth inhibition at 50 uM incubated for 24 hrs by CLSI protocol based broth microdilution assay relative to control; format: functional
Klebsiella aerogenes = assay: Antibacterial activity against Enterobacter aerogenes ATCC 13408 assessed as bacterial growth inhibition at 50 uM incubated for 24 hrs by CLSI protocol based broth microdilution assay relative to control; format: functional
Acinetobacter baumannii = assay: Antibacterial activity against Acinetobacter baumannii ATCC 19606 assessed as bacterial growth inhibition at 50 uM incubated for 24 hrs by CLSI protocol based broth microdilution assay relative to control; format: functional; settings: ATCC 19606 = CIP 70.34 = JCM 6841
Pseudomonas aeruginosa = assay: Antibacterial activity against Pseudomonas aeruginosa ATCC 27853 assessed as bacterial growth inhibition at 50 uM incubated for 24 hrs by CLSI protocol based broth microdilution assay relative to control; format: functional
[5] = target: DNA gyrase (Staphylococcus aureus) (UniProt P0A0K8+P20831); assay: Inhibition of Staphylococcus aureus DNA gyrase assessed as residual activity at 1 uM using biotinylated oligonucleotide as substrate incubated for 30 mins in presence of ATP by fluorescence-based microplate reader assay relative to control; format: protein-complex assay
DNA gyrase = DNA gyrase (Escherichia coli, UniProt P0AES4+P0AES6); assay: Inhibition of Escherichia coli DNA gyrase using biotinylated oligonucleotide as substrate incubated for 30 mins in presence of ATP by fluorescence-based microplate reader assay; format: protein-complex assay
Escherichia coli [6] = assay: Antibacterial activity against efflux pump d effect ive Escherichia coli JW5503 harbouring tolC mutant assessed as bacterial growth inhibition at 50 uM incubated for 24 hrs by CLSI protocol based broth microdilution assay relative to control; format: functional
Enterococcus faecalis = assay: Antibacterial activity against Enterococcus faecalis ATCC 29212 assessed as bacterial growth inhibition at 50 uM incubated for 24 hrs by CLSI protocol based broth microdilution assay relative to control; format: functional
[7] = target: DNA gyrase (Escherichia coli) (UniProt P0AES6+P0AES4); assay: Inhibition of Escherichia coli DNA gyrase assessed as residual activity at 1 uM using biotinylated oligonucleotide as substrate incubated for 30 mins in presence of ATP by fluorescence-based microplate reader assay relative to control; format: protein-complex assay
Escherichia coli [8] = assay: Antibacterial activity against efflux pump d effect ive Escherichia coli JW5503 harbouring tolC mutant assessed as minimum inhibitory concentration required for >=90% inhibition of bacterial growth by CLSI protocol based broth microdilution assay; format: functional

Sequence of DNA gyrase (Staphylococcus aureus) (P0A0K8 2-644 limits assumed): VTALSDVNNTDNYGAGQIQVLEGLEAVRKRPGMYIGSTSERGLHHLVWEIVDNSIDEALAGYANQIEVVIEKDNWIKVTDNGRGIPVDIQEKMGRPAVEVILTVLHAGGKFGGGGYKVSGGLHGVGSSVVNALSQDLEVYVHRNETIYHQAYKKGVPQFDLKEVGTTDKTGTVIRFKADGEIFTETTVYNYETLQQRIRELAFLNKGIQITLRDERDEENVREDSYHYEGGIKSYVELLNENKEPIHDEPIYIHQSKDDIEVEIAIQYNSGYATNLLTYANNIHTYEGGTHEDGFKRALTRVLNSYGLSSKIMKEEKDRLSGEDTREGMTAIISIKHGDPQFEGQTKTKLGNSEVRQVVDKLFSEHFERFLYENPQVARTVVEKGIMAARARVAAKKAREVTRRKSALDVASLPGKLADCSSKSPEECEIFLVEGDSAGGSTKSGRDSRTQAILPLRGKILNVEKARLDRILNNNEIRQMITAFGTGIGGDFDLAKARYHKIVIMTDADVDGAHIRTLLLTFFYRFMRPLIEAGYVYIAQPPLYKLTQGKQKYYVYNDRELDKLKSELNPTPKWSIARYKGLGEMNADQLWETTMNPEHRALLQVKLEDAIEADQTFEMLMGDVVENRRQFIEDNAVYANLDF
Sequence of DNA gyrase (Staphylococcus aureus) (P20831 whole entry partner): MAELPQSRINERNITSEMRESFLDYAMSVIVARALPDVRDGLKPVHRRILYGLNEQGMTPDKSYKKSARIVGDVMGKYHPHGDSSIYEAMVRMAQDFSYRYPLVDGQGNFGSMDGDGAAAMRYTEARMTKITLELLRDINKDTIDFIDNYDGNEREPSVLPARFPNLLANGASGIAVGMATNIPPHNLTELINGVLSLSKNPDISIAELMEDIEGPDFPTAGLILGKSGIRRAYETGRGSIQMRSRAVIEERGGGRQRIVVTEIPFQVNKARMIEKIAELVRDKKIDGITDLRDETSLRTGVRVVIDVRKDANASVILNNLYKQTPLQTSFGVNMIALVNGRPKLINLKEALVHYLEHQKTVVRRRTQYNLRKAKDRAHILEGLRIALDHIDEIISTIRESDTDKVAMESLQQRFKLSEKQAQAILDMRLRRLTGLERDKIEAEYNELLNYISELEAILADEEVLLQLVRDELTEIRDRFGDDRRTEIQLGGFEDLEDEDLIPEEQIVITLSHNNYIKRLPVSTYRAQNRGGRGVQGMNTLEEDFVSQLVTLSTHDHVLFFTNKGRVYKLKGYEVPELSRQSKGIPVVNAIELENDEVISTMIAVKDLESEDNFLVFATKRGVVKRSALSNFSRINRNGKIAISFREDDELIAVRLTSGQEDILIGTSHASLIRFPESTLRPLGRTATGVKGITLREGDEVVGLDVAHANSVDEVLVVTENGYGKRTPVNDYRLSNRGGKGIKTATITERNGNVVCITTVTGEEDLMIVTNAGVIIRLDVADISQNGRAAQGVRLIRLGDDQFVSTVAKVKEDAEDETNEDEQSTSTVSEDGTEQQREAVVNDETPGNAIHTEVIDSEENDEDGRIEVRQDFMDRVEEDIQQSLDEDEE

SMILES | inhibition at 50 µM (Escherichia coli [1]) [%] | Activity [2] [%] | inhibition at 50 µM (Staphylococcus aureus) [%] | Activity [3] [%] | inhibition at 50 µM (Enterococcus faecium) [%] | inhibition at 50 µM (Klebsiella pneumoniae) [%] | inhibition at 50 µM (Escherichia coli [4]) [%] | inhibition at 50 µM (Klebsiella aerogenes) [%] | inhibition at 50 µM (Acinetobacter baumannii) [%] | inhibition at 50 µM (Pseudomonas aeruginosa) [%] | Activity [5] [%] | IC50 (DNA gyrase) [nM] | inhibition at 50 µM (Escherichia coli [6]) [%] | inhibition at 50 µM (Enterococcus faecalis) [%] | Activity [7] [%] | MIC (Escherichia coli [8]) [µM]
Cc1[nH]c(C(=O)Nc2ccc(C(=O)N[C@H](C)C(=O)O)cc2OC2CCN(C(=O)OC(C)(C)C)CC2)c(Cl)c1Cl | -7 | 79 | -22 | 99 | 59 | -13 | 10 | -5 | 15 | -10 | 68 | 71 | -8 | – | – | –
N#CCNC(=O)c1ccc(NC(=O)c2cc(Br)c(Br)[nH]2)cc1 | 2 | – | -5 | – | 2 | 5 | -5 | 7 | 2 | 11 | – | 960 | -9 | 7 | – | –
Cc1[nH]c(C(=O)Nc2ccc(C(=O)NCC(=O)O)cc2O[C@H]2CCN(C(=O)OC(C)(C)C)C2)c(Cl)c1Cl | 5 | – | -1 | – | 9 | 9 | -2 | 6 | 1 | 14 | – | 92 | 2 | – | – | –
CCOC(=O)c1cc2cc(NC(=O)c3[nH]c(C)c(Cl)c3Cl)ccc2[nH]1 | – | – | – | – | – | – | – | – | – | – | – | – | – | – | 100 | –
O=C(O)CNC(=O)c1ccc(NC(=O)c2cc(Br)c(Br)[nH]2)c(OC2CCNCC2)c1 | -9 | 100 | 3 | 100 | 2 | 4 | 5 | 3 | 1 | 2 | 67 | 20 | -17 | – | – | –
COC(=O)CNC(=O)c1ccc(NC(=O)c2cc(Br)c(Br)[nH]2)c(OC2CCN(C(=O)OC(C)(C)C)CC2)c1 | -8 | – | -17 | – | -75 | -12 | 1 | -9 | -4 | -1 | – | – | -4 | – | 100 | –
CC(C)(C)OC(=O)N1CCC(Oc2cc(C(=O)NCC(=O)O)ccc2NC(=O)c2cc(Br)c(Br)[nH]2)CC1 | -14 | – | -18 | – | -76 | 9 | -6 | -14 | -4 | 6 | – | 630 | -4 | – | – | –
Cc1[nH]c(C(=O)Nc2ccc(C(=O)NS(C)(=O)=O)cc2)c(Cl)c1Cl | 15 | 81 | 5 | 98 | -3 | -2 | 4 | -8 | 6 | 3 | 55 | 160 | 73 | 16 | – | –
Cc1[nH]c(C(=O)Nc2ccc3[nH]c(C(=O)O)cc3c2)c(Cl)c1Cl | 2 | – | 6 | – | 20 | -2 | 2 | 6 | 3 | -2 | – | 98 | 99 | 54 | – | 12.5 (≈ 4.4 µg/mL)
